Experimental data from patent US8399383B2, “Protein chips for high throughput screening of protein activity” (Yale University, priority 2000, dated 2013).
“Also recorded” adds a separate entry of the source.

Target: human protein kinase A (PKA) (Homo sapiens, UniProt P17612)
Test: Kinase/inhibitor assay on protein chip (33P-γ-ATP phosphorylation)
Assay type: biochemical
Conditions: peptide and MBP substrates; different concentrations of inhibitor; FIG. 7
Method: Substrates were bound to the surface of the GPTS-treated microwells on the protein chip at room temperature for one hour, then blocked with 1% BSA and 100 mM Tris pH 7.5, and washed three times with TBS buffer. Kinases and different concentrations of kinase inhibitors were added to the microwells in the presence of ^33P-γ-ATP. The phosphorylation reaction was carried out at 30° C. for thirty minutes. After completion of the reaction, the protein chip was washed extensively with TBS buffer at room temperature, and then allowed to dry. Phosphorylation signals were obtained by exposing the protein chip to either X-ray film or a phosphoimager.
A human protein kinase A (PKA), a human map kinase (MAPK), three yeast PKA homologs (TPK1, TPK2 and TPK3), and two other yeast protein kinases (HSL1 and RCK1) were tested against two substrates (i.e., a protein substrate for PKA and a commonly used kinase substrate, MBP) using different concentrations of PKIA (a specific human PKA inhibitor) or SB202190 (a MAPK inhibitor).

## Oc1ccc(-c2nc(-c3ccncc3)c(-c3ccc(F)cc3)[nH]2)cc1 [SB202190]
  inhibition of PKA activity: did not inhibit; also recorded: did not show any inhibitory effect
